Data published in patent US9833497B2, “Human originated EGF domain proteins and use of the same” (CHENGDU SOURCEBIO LIMITED-LIABILITY COMPANY, priority 2013, dated 2017).

Columns and labels:
Format in all cases: cell-based
Citrobacter diversus = test: MIC against Gram-negative bacteria: Citrobacter diversus
Summary of the method: (§1)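 Bacteria grown in LB at 37° C with shaking to McFarland 0.5, pelleted and resuspended in fresh LB, then seeded at 5×10^5 CFU/mL per well. Purified recombinant human EGF domain proteins were two-fold serially diluted in triplicate and plates shaken at 37° C, 175 rpm. MIC is the lowest protein concentration with no bacterial growth.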

Pseudomonas aeruginosa = test: MIC against Gram-negative bacteria: Pseudomonas aeruginosa
Summary of the method: as §1

Moraxella catarrhalis = test: MIC against Gram-negative bacteria: Moraxella catarrhalis
Summary of the method: as §1

E. coli DH5α = test: Antibacterial activity: MIC and growth curve against E. coli DH5α in 96-well plate; details: minimal inhibitory concentration against E. coli DH5α; 96-well plate, 5×10^5 CFU/mL, 37° C., judged after 8 h
Summary of the method: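 Log-phase DH5α (OD600 about 0.5, 37° C, 185 rpm in LB) was pelleted, resuspended in fresh LB and seeded at 5×10^5 CFU/mL with recombinant protein at 50, 25 and 12.5 μg/mL (two-fold series), in triplicate. Plates were shaken at 175 rpm, 37° C, and OD600 was read every 30 min. MIC was the lowest concentration with no growth.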

Proteus vulgaris = test: MIC against Gram-negative bacteria: Proteus vulgaris
Summary of the method: as §1

Enterobacter cloacae = test: MIC against Gram-negative bacteria: Enterobacter cloacae
Summary of the method: as §1

Proteus mirabilis = test: MIC against Gram-negative bacteria: Proteus mirabilis
Summary of the method: as §1

Aeromonas hydrophila = test: MIC against Gram-negative bacteria: Aeromonas hydrophila
Summary of the method: as §1

Klebsiella pneumonia = test: MIC against Gram-negative bacteria: Klebsiella pneumonia
Summary of the method: as §1

E. coli BL21 = test: MIC against Gram-negative bacteria: E. coli BL21
Summary of the method: as §1

Serratia marcescens = test: MIC against Gram-negative bacteria: Serratia marcescens
Summary of the method: as §1

[1] = 96-well plate, 5×10^5 CFU/mL, 37° C., 10 h
[2] = C. diversus, 10 h cultivation at 37° C., 5×10^5 CFU/mL
[3] = P. aeruginosa, 10 h cultivation at 37° C., 5×10^5 CFU/mL
[4] = M. catarrhalis, 10 h cultivation at 37° C., 5×10^5 CFU/mL
[5] = P. vulgaris, 10 h cultivation at 37° C., 5×10^5 CFU/mL
[6] = E. cloacae, 10 h cultivation at 37° C., 5×10^5 CFU/mL
[7] = P. mirabilis, 10 h cultivation at 37° C., 5×10^5 CFU/mL
[8] = A. hydrophila, 10 h cultivation at 37° C., 5×10^5 CFU/mL
[9] = K. pneumonia, 10 h cultivation at 37° C., 5×10^5 CFU/mL
[10] = E. coli BL21, 10 h cultivation at 37° C., 5×10^5 CFU/mL
[11] = S. marcescens, 10 h cultivation at 37° C., 5×10^5 CFU/mL

Substance	MIC (E. coli DH5α) [µg/mL]	MIC (μg/mL) C. diversus (Citrobacter diversus; [2]) [µg/mL]	MIC (μg/mL) P. aeruginosa (Pseudomonas aeruginosa; [3]) [µg/mL]	MIC (μg/mL) M. catarrhalis (Moraxella catarrhalis; [4]) [µg/mL]	MIC (μg/mL) P. vulgaris (Proteus vulgaris; [5]) [µg/mL]	MIC (μg/mL) E. cloacae (Enterobacter cloacae; [6]) [µg/mL]	MIC (μg/mL) P. mirabilis (Proteus mirabilis; [7]) [µg/mL]	MIC (μg/mL) A. hydrophila (Aeromonas hydrophila; [8]) [µg/mL]	MIC (μg/mL) K. pneumonia (Klebsiella pneumonia; [9]) [µg/mL]	MIC (μg/mL) E. coli BL21 (E. coli BL21; [10]) [µg/mL]	MIC (μg/mL) S. marcescens (Serratia marcescens; [11]) [µg/mL]	also measured
PRT506 (CNCSVAGSVSDGCTDEGQCHCVPGVAGKRCDRCAHGFYAYQDGSCTP; listed as Homo sapiens)	25	–	–	–	–	–	–	–	–	–	–	MIC against C. diversus (Citrobacter diversus; [1]): 25 µg/mL; MIC against P. aeruginosa (Pseudomonas aeruginosa; [1]): 25 µg/mL; MIC against M. catarrhalis (Moraxella catarrhalis; [1]): 50 µg/mL; MIC against P. vulgaris (Proteus vulgaris; [1]): 12.5 µg/mL; MIC against E. cloacae (Enterobacter cloacae; [1]): 25 µg/mL; MIC against P. mirabilis (Proteus mirabilis; [1]): 25 µg/mL; MIC against A. hydrophila (Aeromonas hydrophila; [1]): 12.5 µg/mL; MIC against K. pneumonia (Klebsiella pneumonia; [1]): 50 µg/mL; MIC against E. coli BL21 (E. coli BL21; [1]): 12.5 µg/mL; MIC against S. marcescens (Serratia marcescens; [1]): 12.5 µg/mL
PRT872 (CKCNLHANLCSMREGSLQCECEHNTTGPDCGKCKKNFRTRSWRAGSYLPLPHGSPNACAT; listed as Homo sapiens)	25	12.5	25	50	50	25	12.5	50	12.5	50	25	–
PRT184 (DLNYCTHHSPCKNGATCSNSGQRSYTCTCRPGYTGVDCE; listed as Homo sapiens)	25	25	25	50	12.5	25	25	12.5	50	12.5	25	–
PRT791 (SQECQCHNGGTCDAATGQCHCSPGYTGERCQ; listed as Homo sapiens)	50	25	50	50	12.5	50	25	12.5	12.5	12.5	12.5	–
PRT654 (DVNECMGEEHCAPHGECLNSHGSFFCLCAPGFVSAEGGTSCQ; listed as Homo sapiens)	12.5	–	–	–	–	–	–	–	–	–	–	MIC C. diversus (Citrobacter diversus; [1]): 12.5 µg/mL; MIC P. aeruginosa (Pseudomonas aeruginosa; [1]): 12.5 µg/mL; MIC M. catarrhalis (Moraxella catarrhalis; [1]): 50 µg/mL; MIC P. vulgaris (Proteus vulgaris; [1]): 12.5 µg/mL; MIC E. cloacae (Enterobacter cloacae; [1]): 12.5 µg/mL; MIC P. mirabilis (Proteus mirabilis; [1]): 25 µg/mL; MIC A. hydrophila (Aeromonas hydrophila; [1]): 50 µg/mL; MIC K. pneumonia (Klebsiella pneumonia; [1]): 50 µg/mL; MIC E. coli BL21 (E. coli BL21; [1]): 50 µg/mL; MIC S. marcescens (Serratia marcescens; [1]): 25 µg/mL
PRT1038 (FDMPCDETLCSADSFCVNDYTWGGSRCQCTLGKGGESCS; listed as Homo sapiens)	50	–	–	–	–	–	–	–	–	–	–	MIC (Citrobacter diversus; C. diversus, 10 h cultivation at 37° C.): 25 µg/mL; MIC (Pseudomonas aeruginosa; P. aeruginosa, 10 h cultivation at 37° C.): 50 µg/mL; MIC (Moraxella catarrhalis; M. catarrhalis, 10 h cultivation at 37° C.): 50 µg/mL; MIC (Proteus vulgaris; P. vulgaris, 10 h cultivation at 37° C.): 12.5 µg/mL; MIC (Enterobacter cloacae; E. cloacae, 10 h cultivation at 37° C.): 50 µg/mL; MIC (Proteus mirabilis; P. mirabilis, 10 h cultivation at 37° C.): 50 µg/mL; MIC (Aeromonas hydrophila; A. hydrophila, 10 h cultivation at 37° C.): 12.5 µg/mL; MIC (Klebsiella pneumonia; K. pneumonia, 10 h cultivation at 37° C.): 50 µg/mL; MIC (E. coli BL21; E. coli BL21, 10 h cultivation at 37° C.): 12.5 µg/mL; MIC (Serratia marcescens; S. marcescens, 10 h cultivation at 37° C.): 25 µg/mL
